Test results as given in patent US6586457B2, “Methods for inhibiting bone resorption” (Merck & Co., Inc., priority 1998, dated 2003).
“Also recorded” adds a separate entry of the source.

Tests used:
EP4 mRNA [1] = test: EP4 mRNA levels in RP-1 periosteal cells (Northern blot); type: cell-based, rat; details: 10^-6 M
Protocol: (§1) RP-1 periosteal cells are spontaneously immortalized from primary cultures of periosteal cells from tibae of 4-week old Sprague-Dawley rats and are cultured in DMEM (BRL, Gaithersburg, Md.) with 10% fetal bovine serum (JRH Biosciences, Lenexa, Kans.). […] Total RNA is extracted from the tibial metaphysis or diaphysis and calvaria using a guanidinium isothiocyanate-phenol-chloroform method after pulverizing frozen bone samples by a tissue homogenizer. See P. Chomczynski et al., Single-step method of RNA isolation by acid guanidium thiocyanate-phenol-chloroform extraction., Analyt Biochem, 162, 156-159 (1987), which is incorporated by reference herein in its entirety. RNA samples ([…]) are separated on 0.9% agarose/formaldehyde gels and transferred onto nylon membranes (Boehringer Mannheim, Germany). Membranes are prehybridized in Hybrisol I (Oncor, Gaithersburg, Md.) and 0.5 mg/ml sonicated salmon sperm DNA (Boehringer) at 42° C. for 3 hours and are hybridized at 42° C. with rat EP2 and mouse EP4 cDNA probes labeled with [^32P]-dCTP (Amersham, Buckinghamshire, UK) by random priming using the rediprime kit (Amersham). After hybridization, membranes are washed 4 times in 2×SSC+0.1% SDS at room temperature for a total of 1 hour and once with 0.2×SSC+0.1% SDS at 55° C. for 1 hour and then exposed to Kodak XAR 2 film at −70° C. using intensifying screens. […]

EP4 mRNA [2] = test: EP4 mRNA levels in RCT-3 cells (Northern blot); type: cell-based, rat
Protocol: (§2) RCT-1 and RCT-3 are clonal cell lines immortalized by SV-40 large T antigen from cells released from fetal rat calvair by a cmbination collagenase/hyaluronidase digestion. RCT-1 cells, derived from cells released during the first 10 minutes of digestion (fraction I), are cultured in RPMI 1640 medium (BRL) with 10% fetal bovine serum and 0.4 mg/ml G418 (BRL). […] RCT-3 cells, immortalized from osteoblast-enriched fraction III cells, are cultured in F-12 medium (BRL) with 5% Fetal bovine serum and 0.4 mg/ml G418. TRAB-11 cells are also immortalized by SV40 large T antigen from adult rat tibia and are cultured in RPMI 1640 medium with 10% FBS and 0.4 mg/ml G418. ROS 17/2.8 rat osteosarcoma cells are cultured in F-12 containing 5% FBS. Osteoblast-enriched (fraction III) primary fetal rat calvaria cells are obtained by collagenase/hyaluronidase digestion of calvariae of 19 day-old rat fetuses. See Rodan et al., Growth stimulation of rat calvaria osteoblastic cells by acidic FGF, Endocrinology, 121, 1919-1923 (1987), which is incorporated by reference herein in its entirety. Cells are released during 30-50 minutes digestion (fraction III) and are cultured in F-12 medium containing 5% FBS. Total RNA is extracted from the tibial metaphysis or diaphysis and calvaria using a guanidinium isothiocyanate-phenol-chloroform method after pulverizing frozen bone samples by a tissue homogenizer. […]

EP2 mRNA [3] = test: EP2 mRNA expression in RP-1 cells (Northern blot); type: cell-based, rat
Protocol: as §1

ROS 17/2.8 cells = test: Intracellular cAMP in ROS 17/2.8 cells; type: cell-based, rat
Protocol: as §2, with “FBS.” for “FBS. Total RNA is extracted from the tibial metaphysis or diaphysis and calvaria using a guanidinium isothiocyanate-phenol-chloroform method after pulverizing frozen bone samples by a tissue homogenizer.”

RCT-3 cells = test: Intracellular cAMP in RCT-3 cells; type: cell-based, rat
Protocol: as §2, with “FBS.” for “FBS. Total RNA is extracted from the tibial metaphysis or diaphysis and calvaria using a guanidinium isothiocyanate-phenol-chloroform method after pulverizing frozen bone samples by a tissue homogenizer.”

TRAB-11 cells = test: Intracellular cAMP in TRAB-11 cells; type: cell-based, rat
Protocol: as §2, with “FBS.” for “FBS. Total RNA is extracted from the tibial metaphysis or diaphysis and calvaria using a guanidinium isothiocyanate-phenol-chloroform method after pulverizing frozen bone samples by a tissue homogenizer.”

EP4 mRNA [4] = test: EP4 mRNA levels in vivo in bone tissue after systemic administration (Northern blot); parameters: species or system rat
Protocol: For mRNA localization experiments, 5-week old Sprague-Dawley rats (Charles River) are euthanized by CO2, their tibiae and calvariae are excised, cleaned of soft tissues and frozen immediately in liquid nitrogen. For EP4 regulation experiments, 6-week old rats are given a single injection of either vehicle (7% ethanol in sterile water) or an anabolic dose of PGE2 (Cayman Chemical, Ann Arbor, Mich.), 3-6 mg/kg in the same vehicle) intraperitoneally. Animals are euthenized at several time points post-injection and their tibiae and calvariae, as well as samples from lung and kidney tissues are frozen in liquid nitrogen. Total RNA is extracted from the tibial metaphysis or diaphysis and calvaria using a guanidinium isothiocyanate-phenol-chloroform method after pulverizing frozen bone samples by a tissue homogenizer. See P. Chomczynski et al., Single-step method of RNA isolation by acid guanidium thiocyanate-phenol-chloroform extraction., Analyt Biochem, 162, 156-159 (1987), which is incorporated by reference herein in its entirety. RNA samples ([…]) are separated on 0.9% agarose/formaldehyde gels and transferred onto nylon membranes (Boehringer Mannheim, Germany). Membranes are prehybridized in Hybrisol I (Oncor, Gaithersburg, Md.) and 0.5 mg/ml sonicated salmon sperm DNA (Boehringer) at 42° C. for 3 hours and are hybridized at 42° C. with rat EP2 and mouse EP4 cDNA probes labeled with [^32P]-dCTP (Amersham, Buckinghamshire, UK) by random priming using the rediprime kit (Amersham). After hybridization, membranes are washed 4 times in 2×SSC+0.1% SDS at room temperature for a total of 1 hour and once with 0.2×SSC+0.1% SDS at 55° C. for 1 hour and then exposed to Kodak XAR 2 film at −70° C. using intensifying screens. After developing the films, bound probes are removed twice with 0.1% SDS at 80° C. and membranes are hybridized with a human GAPDH (Glyceraldehyde 3-Phosphate Dehydrogenase) cDNA probe (purchased from Clontech, Palo Alto, Calif.) for loading control. To examine if PGE2 regulates EP4 mRNA levels in vivo in bone tissue, […] male rats are injected with PGE2 (3-6 mg/Kg).

EP2 mRNA [5] = test: EP2 mRNA in vivo in bone tissue after systemic administration; details: RP-1 cells and rat bone tissue
Protocol: For mRNA localization experiments, 5-week old Sprague-Dawley rats (Charles River) are euthanized by CO2, their tibiae and calvariae are excised, cleaned of soft tissues and frozen immediately in liquid nitrogen. For EP4 regulation experiments, 6-week old rats are given a single injection of either vehicle (7% ethanol in sterile water) or an anabolic dose of PGE2 (Cayman Chemical, Ann Arbor, Mich.), 3-6 mg/kg in the same vehicle) intraperitoneally. Animals are euthenized at several time points post-injection and their tibiae and calvariae, as well as samples from lung and kidney tissues are frozen in liquid nitrogen. Total RNA is extracted from the tibial metaphysis or diaphysis and calvaria using a guanidinium isothiocyanate-phenol-chloroform method after pulverizing frozen bone samples by a tissue homogenizer. See P. Chomczynski et al., Single-step method of RNA isolation by acid guanidium thiocyanate-phenol-chloroform extraction., Analyt Biochem, 162, 156-159 (1987), which is incorporated by reference herein in its entirety. RNA samples ([…]) are separated on 0.9% agarose/formaldehyde gels and transferred onto nylon membranes (Boehringer Mannheim, Germany). […]

EP4 mRNA [6] = test: In situ hybridization of EP4 expression in tibial bone marrow cells; type: in vivo, rat; details: rats, single anabolic dose
Protocol: For mRNA localization experiments, 5-week old Sprague-Dawley rats (Charles River) are euthanized by CO2, their tibiae and calvariae are excised, cleaned of soft tissues and frozen immediately in liquid nitrogen. For EP4 regulation experiments, 6-week old rats are given a single injection of either vehicle (7% ethanol in sterile water) or an anabolic dose of PGE2 (Cayman Chemical, Ann Arbor, Mich.), 3-6 mg/kg in the same vehicle) intraperitoneally. Animals are euthenized at several time points post-injection and their tibiae and calvariae, as well as samples from lung and kidney tissues are frozen in liquid nitrogen.
Frozen tibiae are sectioned coronally at […] thickness and sections are mounted on charged slides (Probe On Plus, Fisher Scientific, Springfield, N.J.) and are kept at −70° C. until hybridization. cRNA probes are labeled with ^35S-UTPgS (ICN, Costa Mesa, Calif.) using a Riboprobe II kit (Promega Madison, Wis.). Hybridization is performed overnight at 50° C. […]
In situ hybridization is used in order to localize cells expressing EP4 in bone. In control experiment (vehicle-injected) rats, low expression of EP4 was detected in bone marrow cells. […]

[7] = rats, 3-6 mg/Kg, systemic injection
[8] = young adult rats, 3-6 mg/kg, systemic

## CCCCCC(O)/C=C/[C@H]1C(O)CC(=O)C1C/C=C\CCCC(=O)O (stereo partly shown) [PGE2]
EP4 mRNA [1]
  effect on EP4 mRNA levels: rapidly increases EP4 mRNA levels; also recorded: increases the level of EP4 mRNA
  time of peak of EP4 mRNA levels after treatment: 2 h
EP4 mRNA [2]
  effect on EP4 mRNA levels: no effect on EP4 mRNA levels
EP2 mRNA [3]
  EP2 mRNA expression before or after treatment: not expressed
ROS 17/2.8 cells
  effect on intracellular cAMP: no effect on intracellular cAMP
RCT-3 cells
  effect on intracellular cAMP: markedly induced
TRAB-11 cells
  effect on intracellular cAMP: markedly induced
EP4 mRNA [4]; [7]
  effect on EP4 mRNA levels in tibial diaphysis: rapidly increased EP4 mRNA levels
  time of peak of EP4 mRNA levels in tibial diaphysis after injection: 2 h
EP4 mRNA [4]; [8]
  effect on expression of EP4 in tibiae and calvariae: upregulates the expression of EP4
  time of peak of EP4 upregulation in tibiae and calvariae: 1 to 2 h
EP2 mRNA [5]
  induction of EP2 mRNA in RP-1 cells and bone tissue: does not include EP2 mRNA
EP4 mRNA [6]
  effect on expression of EP4 in bone marrow cells: increasesd the expression of EP4
